Experiments:
[1] = Lipid nanoparticle size by dynamic light scattering (Malvern Zetasizer Nano ZS); assay type: physicochemical; conditions: LNP: cationic lipid/DSPC/cholesterol/PEG-lipid 50:10:38.5:1.5, hEPO mRNA; Table 3
Method: (§1) Briefly, a cationic lipid provided herein, DSPC, cholesterol, and PEG-lipid were solubilized in ethanol at a molar ratio of 50:10:38.5:1.5, and mRNA were diluted in 10 to 50 mM citrate buffer, pH=4. The LNPs were prepared at a total lipid to mRNA weight ratio of approximately 10:1 to 30:1 by mixing the ethanolic lipid solution with the aqueous mRNA solution at a volume ratio of 1:3 using a microfluidic apparatus, total flow rate ranging from 9-30 mL/min. Ethanol were thereby removed and replaced by DPBS using dialysis. Finally, the lipid nanoparticles were filtered through a 0.2 μm sterile filter.
(§2) Lipid nanoparticle size were determined by dynamic light scattering using a Malvern Zetasizer Nano ZS (Malvern UK) using a 173° backscatter detection mode. The encapsulation efficiency of lipid nanoparticles were determined using a Quant-it Ribogreen RNA quantification assay kit (Thermo Fisher Scientific, UK) according to the manufacturer's instructions.

[2] = Encapsulation efficiency of lipid nanoparticles (Quant-it Ribogreen RNA quantification assay); assay type: physicochemical; conditions: LNP encapsulating hEPO mRNA; Table 3
Method: as §1, §2

[3] = test system: human erythropoietin (hEPO) mRNA; test: Animal study: hEPO expression after tail vein injection of LNPs encapsulating hEPO mRNA (serum ELISA); assay type: in vivo; conditions: hEPO level, female ICR mice, 0.5 mg/kg, 6 hours post administration, class symbols, Table 3
Method: Lipid nanoparticles comprising compounds 1-10 encapsulating human erythropoietin (hEPO) mRNA were systemically administered to 6-8 week old female ICR mice (Xipuer-Bikai, Shanghai) at 0.5 mg/kg dose by tail vein injection and mice blood were sampled at specific time points (e.g., 6 hours) post administration. In addition to the aforementioned tested groups, lipid nanoparticles comprising dilinoleylmethyl-4-dimethylaminobutyrate (DLin-MC3-DMA, usually abbreviated to MC3) encapsulating hEPO mRNA were similarly administered at the same dose to age and gender comparative groups of mice as a positive control.
Mice were euthanized by CO2 overdoses after the last sampling time point. Serum were separated from total blood by centrifugation at 5000 g for 10 minutes at 4° C., snap-frozen and stored at −80° C. for analysis. ELSA assay were carried out using a commercial kit (DEP00, R&D systems) according to manufacturer's instructions.
Characteristics of tested lipid nanoparticles, including hEPO expression levels (μg/ml) measured from the tested group are listed the tables below and plotted in FIG. 2.

With CCCCCCCCC(CCCCCC)COC(=O)CCCCCC(CCCCCC(=O)OCC(CCCCCC)CCCCCCCC)CN(CCO)C1CCCCCCC1 (stereo not shown) [Compound 17] the polydispersity [1] was 0.209, the size nm [1] was 57.6 nm and the “Encapsulation Efficiency” value [2] was 18.18%. The “Expression at 6 h (μg/ml)” value [3] was “D (<0.1)”.

For CCCCCCCCC(CCCCCC)COC(=O)CCCCCN(CCCCCC(=O)OCC(CCCCCC)CCCCCCCC)CCN(CCO)C1CCC(F)(F)CC1 (stereo not shown) [Compound 23], the polydispersity [1] was 0.14, the size nm [1] was 60.64 nm and the “Encapsulation Efficiency” value [2] was 93.9%. For the same compound, the “Expression at 6 h (μg/ml)” value [3] was “B (≥1 and <2)”.

For CCCCCCCCC(CCCCCC)CC(=O)COCCCCN(CCCCCOC(=O)CC(CCCCCC)CCCCCCCC)CCN(CCO)C1CCCCC1 (stereo not shown) [Compound 26], the polydispersity [1] was 0.125, the size nm [1] was 55.51 nm and the “Encapsulation Efficiency” value [2] was 96.7%. For the same compound, the “Expression at 6 h (μg/ml)” value [3] was “C (≥0.1 and <1)”.

With CCCCCCCCC(CCCCCC)COC(=O)CCCCCN(CCCCCC(=O)OCC(CCCCCC)CCCCCCCC)CCN(CCCCCCO)C1CCC1 (stereo not shown) [Compound 30] the polydispersity [1] was 0.071, the size nm [1] was 80.46 nm and the “Encapsulation Efficiency” value [2] was 95.9%. For the same compound, the “Expression at 6 h (μg/ml)” value [3] was “B (≥1 and <2)”.

With CCCCCCCCC(CCCCCC)C(CCC)OC(=O)CCCCCN(CCCCCC(=O)OC(CCC)C(CCCCCC)CCCCCCCC)CCN(CCO)C1CCC1 (stereo not shown) [Compound 40] the polydispersity [1] was 0.081, the size nm [1] was 66.39 nm and the “Encapsulation Efficiency” value [2] was 99.2%. The “Expression at 6 h (μg/ml)” value [3] was “C (≥0.1 and <1)”.

With CCCCCCCCCCC(CCCCCC)COC(=O)CCCCCCN(CCCCCCC(=O)OCC(CCCCCC)CCCCCCCCCC)CCN(CCO)C1CCC1 (stereo not shown) [Compound 43] the polydispersity [1] was 0.068, the size nm [1] was 74.8 nm and the “Encapsulation Efficiency” value [2] was 97.3%. The “Expression at 6 h (μg/ml)” value [3] was “B (≥1 and <2)”.

With CCCCCCCCC(CCCCCC)C(=O)OCCCCCCN(CCCCCCOC(=O)C(CCCCCC)CCCCCCCC)CCN(CCO)C1CCC1 (stereo not shown) [Compound 45] the polydispersity [1] was 0.032, the size nm [1] was 71.47 nm and the “Encapsulation Efficiency” value [2] was 96.6%. The “Expression at 6 h (μg/ml)” value [3] was “A (≥2)”.

In the case of CCCCCCCCCCCCC(CCCCCC)COC(=O)CCCN(CCCC(=O)OCC(CCCCCC)CCCCCCCCCCCC)CCN(CCO)C1CCC1 (stereo not shown) [Compound 47], the polydispersity [1] is reported as 0.103, the size nm [1] is reported as 62.38 nm and the “Encapsulation Efficiency” value [2] is reported as 95.3%. For the same compound, the “Expression at 6 h (μg/ml)” value [3] was “C (≥0.1 and <1)”.

For CCCCCCCCCCC(CCCCCCCCCC)COC(=O)CCCCCN(CCCCCC(=O)OCC(CCCCCCCCCC)CCCCCCCCCC)CCN(CCO)C1CCC1 [Compound 52], the polydispersity [1] was 0.054, the size nm [1] was 69.18 nm and the “Encapsulation Efficiency” value [2] was 95.70%. For the same compound, the “Expression at 6 h (μg/ml)” value [3] was “A (≥2)”.

With CCCCCCCCC(CCCCCC)COC(=O)CCCCCN(CCCCCC(=O)OCC(CCCCCC)CCCCCCCC)CCN(C)C1CCC(O)CC1 (stereo not shown) [Compound 54] the polydispersity [1] was 0.051, the size nm [1] was 102.7 nm and the “Encapsulation Efficiency” value [2] was 97.2%. The “Expression at 6 h (μg/ml)” value [3] was “D (<0.1)”.

With CCCCCCCCC(CCCCCC)COC(=O)CCCCCN(CCCCCC(=O)OCC(CCCCCC)CCCCCCCC)CCN(CC)C1CCC(O)CC1 (stereo not shown) [Compound 55] the polydispersity [1] was 0.109, the size nm [1] was 95.51 nm and the “Encapsulation Efficiency” value [2] was 96.7%. For the same compound, the “Expression at 6 h (μg/ml)” value [3] was “C (≥0.1 and <1)”.

For CCCCCCCCC(CCCCCC)COC(=O)CCCCCN(CCCCCC(=O)OCC(CCCCCC)CCCCCCCC)CCN(CCCCC)C1CCC(O)CC1 (stereo not shown) [Compound 61], the polydispersity [1] was 0.087, the size nm [1] was 65.04 nm and the “Encapsulation Efficiency” value [2] was 83.4%. For the same compound, the “Expression at 6 h (μg/ml)” value [3] was “A (≥2)”.

In the case of CCCCCCCCC(CCCCCC)COC(=O)CCCCCN(CCCCCC(=O)OCC(CCCCCC)CCCCCCCC)CCN(CCOC(C)=O)C1CCC1 (stereo not shown) [Compound 64], the polydispersity [1] is reported as 0.181, the size nm [1] is reported as 84.93 nm and the “Encapsulation Efficiency” value [2] is reported as 84.1%. For the same compound, the “Expression at 6 h (μg/ml)” value [3] was “D (<0.1)”.

For CCCCCCCCC(CCCCCCCC)COC(=O)CCCCCN(CCCCCC(=O)OCC(CCCCCCCC)CCCCCCCC)CCN(CCC)C1CCCCC1O (stereo not shown) [Compound 69], the polydispersity [1] was 0.06, the size nm [1] was 58.74 nm and the “Encapsulation Efficiency” value [2] was 78.3%. The “Expression at 6 h (μg/ml)” value [3] was “D (<0.1)”.

For CCCCCCCCC(CCCCCCCC)COC(=O)CCCCCN(CCCCCC(=O)OCC(CCCCCCCC)CCCCCCCC)CCN(C)C1CCC(O)CC1 (stereo not shown) [Compound 73], the polydispersity [1] was 0.027, the size nm [1] was 78.99 nm and the “Encapsulation Efficiency” value [2] was 93.1%. For the same compound, the “Expression at 6 h (μg/ml)” value [3] was “C (≥0.1 and <1)”.

With CCCCCCCCC(CCCCCCCC)COC(=O)CCCCCN(CCCCCC(=O)OCC(CCCCCCCC)CCCCCCCC)CCN(CCCCCC)C1CCC(O)CC1 (stereo not shown) [Compound 75] the polydispersity [1] was 0.032, the size nm [1] was 62.36 nm and the “Encapsulation Efficiency” value [2] was 94.1%. For the same compound, the “Expression at 6 h (μg/ml)” value [3] was “A (≥2)”.

In the case of CCCCCCCCC(CCCCCCCC)COC(=O)CCCCCN(CCCCCC(=O)OCC(CCCCCCCC)CCCCCCCC)CCN(CCO)C1CC(c2ccccc2)C1 (stereo not shown) [Compound 76], the polydispersity [1] is reported as 0.096, the size nm [1] is reported as 54.94 nm and the “Encapsulation Efficiency” value [2] is reported as 91.71%. For the same compound, the “Expression at 6 h (μg/ml)” value [3] was “C (≥0.1 and <1)”.

For CCCCCCCCC(CCCCCCCC)COC(=O)CCCCCN(CCCCCC(=O)OCC(CCCCCCCC)CCCCCCCC)CCN(CCO)C1CCC(F)(F)CC1 [Compound 78], the polydispersity [1] was 0.091, the size nm [1] was 44.47 nm and the “Encapsulation Efficiency” value [2] was 92.4%. The “Expression at 6 h (μg/ml)” value [3] was “C (≥0.1 and <1)”.

In the case of CCCCCCCCC(CCCCCC)COC(=O)CCCCCN(CCCCCC(=O)OCC(CCCCCC)CCCCCCCC)CCN(CCO)C1CCN(C)CC1 (stereo not shown) [Compound 94], the polydispersity [1] is reported as 0.298, the size nm [1] is reported as 67.01 nm and the “Encapsulation Efficiency” value [2] is reported as 100.3%. For the same compound, the “Expression at 6 h (μg/ml)” value [3] was “D (<0.1)”.

For CCCCCCCCC(CCCCCC)COC(=O)CCCCCN(CCCCCC(=O)OCC(CCCCCC)CCCCCCCC)CCN1CCC(O)C1 (stereo not shown) [Compound 95], the polydispersity [1] was 0.285, the size nm [1] was 82.43 nm and the “Encapsulation Efficiency” value [2] was 97.2%. For the same compound, the “Expression at 6 h (μg/ml)” value [3] was “D (<0.1)”.

With CCCCCCCCC(CCCCCC)COC(=O)CCCCCN(CCCCCC(=O)OCC(CCCCCC)CCCCCCCC)CCN1CCC(O)CC1 (stereo not shown) [Compound 96] the polydispersity [1] was 0.101, the size nm [1] was 85.98 nm and the “Encapsulation Efficiency” value [2] was 96.9%. The “Expression at 6 h (μg/ml)” value [3] was “D (<0.1)”.

For CCCCCCCCC(CCCCCC)COC(=O)CCCCCN(CCCCCC(=O)OCC(CCCCCC)CCCCCCCC)CCN1CC(O)C1 (stereo not shown) [Compound 97], the polydispersity [1] was 0.204, the size nm [1] was 66.69 nm and the “Encapsulation Efficiency” value [2] was 96.8%. For the same compound, the “Expression at 6 h (μg/ml)” value [3] was “D (<0.1)”.

With CCCCCCCCC(CCCCCC)COC(=O)CCCCCN(CCCCCC(=O)OCC(CCCCCC)CCCCCCCC)C1CCN(CCO)CC1 (stereo not shown) [Compound 98] the polydispersity [1] was 0.105, the size nm [1] was 86.23 nm and the “Encapsulation Efficiency” value [2] was 97.6%. The “Expression at 6 h (μg/ml)” value [3] was “D (<0.1)”.

For CCCCCCCCC(CCCCCC)COC(=O)CCCCCN(CCCCCC(=O)OCC(CCCCCC)CCCCCCCC)CCN(C1CCCCC1)C1CCC(O)CC1 (stereo not shown) [Compound 99], the polydispersity [1] was 0.1, the size nm [1] was 66.06 nm and the “Encapsulation Efficiency” value [2] was 100.2%. The “Expression at 6 h (μg/ml)” value [3] was “C (≥0.1 and <1)”.

In the case of CCCCCCCCC(CCCCCCCC)COC(=O)COCCOCCN(CCOCCOCC(=O)OCC(CCCCCCCC)CCCCCCCC)CCN(CCO)C1CCC1 [Compound 103], the polydispersity [1] is reported as 0.054, the size nm [1] is reported as 67.57 nm and the “Encapsulation Efficiency” value [2] is reported as 94.41%. The “Expression at 6 h (μg/ml)” value [3] was “C (≥0.1 and <1)”.

Source: patent publication US11472766B2, “Lipid nanoparticle composition” (Suzhou Abogen Biosciences Co., Ltd., priority 2020, dated 2022)
